This passage reports MIC, viability and IC50 results from patent US11713318B2, “Short conjugated oligoelectrolytes and uses thereof” (The Regents Of The University Of California, priority 2018, dated 2023).

Read-outs that look alike come from different tables or passages of the source.

Series [1] concerns S. epidermidis (ATCC 14990). The series is described as follows: MIC broth microdilution method, Table 3. Particulars: Staphylococcus epidermidis, ATCC14990. On the technique in general: Broth dilution looks for growth in wells or tubes with falling amounts of substance.
The nature of series [2]: Cytotoxicity tested by Eurofins Pharma Discovery Services. It is filed as cell-based. The note with it: human, Hep G2 cells; Hep G2, Eurofins; at the concentration given as IC50 bound; read-out: cell viability at the highest or lowest test concentration.
A further series relates to Hep G2 cells. The description is as above. It is filed as cell-based. Particulars: Homo sapiens, HepG2; Hep G2; data provided by Eurofins; read-out: IC50.
The test system of series [3] is primary human hepatocytes. The description is as above. The series is classed as cell-based. The note with it: Hepatocyte, data provided by Eurofins, read-out: IC50.
A further series in a line: Cytotoxicity, MTT assay. Particulars: at the concentration given as IC50 bound, read-out: cell viability at the highest or lowest test concentration. It is filed as cell-based. Put shortly:
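Cells seeded at 5000/well (NIH 3T3) or 10000/well (Hep G2, J774, RAW264.7) in DMEM+10% FBS, incubated overnight, then exposed 24 h to 2-fold serial dilutions (9 concentrations, six replicates each). MTT added for 4 h, formazan dissolved in DMSO, A570 read. Viability expressed as blank-corrected absorbance relative to medium-only control.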

Series [4] concerns K. aerogenes (ATCC 13048). Briefly: MIC broth microdilution method, Table 3. Particulars: Klebsiella aerogenes, ATCC13048.
In another series the test system is Y. pseudotuberculosis. The series is described as follows: microbe, parasite or virus in culture. The series is classed as cell-based. Particulars: Yersinia pseudotuberculosis.
The test system of a further series is P. aeruginosa. The series is described as follows: MIC panel of pathogens, Table 4. It is filed as cell-based. Particulars: Pseudomonas aeruginosa.
The subject of a further series is A. baumannii. The series is described as follows: MIC panel of pathogens, Table 4. It is filed as cell-based. Particulars: Acinetobacter baumannii.
The test system of series [5] is K pneumoniae (clinical isolate). The series is described as follows: MIC panel of pathogens, Table 4. The series is classed as cell-based. Particulars: clinical isolate from Cottage Hospital.
The subject of the next series is S. pneumoniae Daw 1. The series is described as follows: MIC panel of pathogens, Table 4. It is filed as cell-based. The note with it: Streptococcus pneumoniae, DAW1.
The subject of a further series is S. aureus (MSSA). The series is described as follows: MIC panel of pathogens, Table 4. The series is classed as cell-based. The note with it: Staphylococcus aureus.
For series [6], the system named is RAW264.7 (ATCC TIB-71) cells. The series is described as follows: Cytotoxicity, MTT assay. The series is classed as cell-based, murine. The note with it: Mus musculus, RAW264.7; RAW 264.7; MTT, 24 hours incubation; read-out: IC50. Here is the method:
Before removing the frozen cell stocks from liquid nitrogen, culture medium was pre-warmed to 37° C. The frozen tube was then removed from liquid nitrogen and placed into a 37° C. water bath and shaken gently to thaw the cell stock as quickly as possible. A small portion of the pre-warmed culture medium was added to the cell solution. The cell suspension was then centrifuged at 1000 r/min for 3 minutes. The supernatant was discarded and the cells were resuspended in fresh culture medium.
NIH 3T3 (ATCC CRL-1658) and Hep G2 (ATCC HB-8065) cells were cultured with DMEM+10% FBS in 100 mm dishes. Cells were lifted for subculture or testing when confluence reached ˜60% by treating with 1× trypsin (incubated for 3 min at 37° C.). J774 (ATCC TIB-67) cells were cultured with DMEM+10% FBS in 100 mm dishes. Cells were lifted for subculture or testing when confluence reached ˜80% using a cell scraper. RAW264.7 (ATCC TIB-71) cells were cultured with DMEM+10% heat-inactivated FBS+1% pen/strep in T75 flasks. Cells were lifted for subculture or testing when confluence reached ˜80% using a cell scraper.
• 1. Cells were lifted and resuspended in culture medium. The number of cells in the cell suspension was determined using an auto-cell counter: 10 μL of the cell suspension was mixed with 10 μL 1× trypan blue (filtered with 0.2 μm PES filter) and the mixture was loaded onto a cell counting slide. Based on the concentration of viable cells, the cell suspension was further diluted to achieve the desired density. • 2. […] The 96-well plates were analyzed in a plate reader using the following method: shake for 5 minutes, wait for 30 seconds, and measure absorbance at 570 nm. • 8. Data processing: The average of background Abg was calculated from the blank column. […] The average A. and standard deviation Se of each experimental group and the average Ac and standard deviation Sc for control group (with pure culture medium incubation) were then calculated. The cell viability was determined as Ae/Ac×100% and corresponding error as Se/Ae×100%. […]
Background: Tetrazolium dyes change colour on reduction, which living cells bring about.

A further series relates to N. gonorrhoeae. Briefly: MIC panel of pathogens, Table 4. The series is classed as cell-based. Particulars: Neisseria gonorrhoeae.
The test system of a further series is E. coli. Briefly: MIC panel of pathogens, Table 4. It is filed as cell-based. The note with it: Escherichia coli. As for the experimental part:
(§1) The minimum inhibitory concentration (MIC) was determined according to the Clinical and Laboratory Standards Institute (CLSI) guidelines by broth dilution. […] MIC values were derived after 20 h incubation, and were the result of at least 6 independent determinations.

For the next series, the system named is S. flexneri. Briefly: MIC panel of pathogens, Table 4. It is filed as cell-based. The note with it: Shigella flexneri. As for the experimental part:
as §1

In series [7] the test system is S. aureus (MRSA) (clinical isolate). The series is described as follows: MIC panel of pathogens, Table 4. It is filed as cell-based. Particulars: Staphylococcus aureus, clinical isolate from Cottage Hospital.
Another series concerns S. Typhimurium. Briefly: MIC panel of pathogens, Table 4. Particulars: Salmonella enterica. The series is classed as cell-based.

Take `C[N+](C)(C)CCCCOc1cc(/C=C/c2ccc(/C=C/c3cc(OCCCC[N+](C)(C)C)cc(OCCCC[N+](C)(C)C)c3)cc2)cc(OCCCC[N+](C)(C)C)c1.[I-].[I-].[I-].[I-]` [Formula F]: the MIC in [1] was 2 µg/mL; in [4], 32 µg/mL. For the same compound, in series [2], the viability came out at 70%. Also, the IC50 (in the series with Hep G2 cells; in series [3]) was more than 324 µg/mL throughout. Also, the viability at 24 h was found to be 100% in “Cytotoxicity, MTT assay” (human, Hep G2 (ATCC HB-8065) cells, Hep G2); 51% in the series “Cytotoxicity, MTT assay” (mouse, J774 (ATCC TIB-67) cells); 56.2% in “Cytotoxicity, MTT assay” (mouse, NIH 3T3 (ATCC CRL-1658) cells, NIH 3T3).
As to `CCCCCC[N+](C)(C)CCCCCCOc1cc(/C=C/c2cc(OCCCCCC[N+](C)(C)CCCCCC)cc(OCCCCCC[N+](C)(C)CCCCCC)c2)cc(OCCCCCC[N+](C)(C)CCCCCC)c1` [Formula E], the MIC stood at 1 µg/mL in the series with Y. pseudotuberculosis; 4 µg/mL in [1]; 8 µg/mL against P. aeruginosa; 4 µg/mL with A. baumannii; 4 µg/mL in series [5]; 8 µg/mL in the series with S. pneumoniae Daw 1. Moreover, the MIC with S. aureus (MSSA) came out at 1 µg/mL; in the series with N. gonorrhoeae it was 0.5 µg/mL; with E. coli, 2 µg/mL; against S. flexneri, 2 µg/mL; in [4], 8 µg/mL; in series [7], 1 µg/mL. In the series on S. Typhimurium, the MIC was 2 µg/mL. For the same compound, the results for the IC50 (with Hep G2 cells; in [6]; in [3]) were 5.6 µg/mL, 3.76 µg/mL and 13.2 µg/mL, respectively.
